In the supplement of paper PMC11208160:

experiment: recombinant barcode read abundance after kanamycin selection (control-corrected) (log10(CPM+1)); higher = more efficient recombination; sequences stand for … in AGTGCAGAGAAAATCGGCCAGTTTTCTCTGCCTGCAGTCCGCATGCCGT…ATTTATGCAGCGGACTGCCTTTCTCCCAAAGTGATAAACCGGACAGTATCATGGACCGGTTTTCCCGGTAATCCGTATTTGCAAGGTTGGTTTCACT; site = the 11-nt target
How it was run: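 Pooled E. coli screen pairing targets with IS621 bridge RNA target-binding loops. Each oligo (promoter, target, barcode, J23119-driven first 104 bridge RNA bases) was Gibson-cloned into a vector with the remaining 73 bp and T7-inducible recombinase, then co-electroporated with a donor plasmid. Two replicates each were plated on chloramphenicol/ampicillin LB agar (control) or chloramphenicol/ampicillin/kanamycin with 0.1 mM IPTG. Recombination efficiency is recombinant-junction barcode counts as CPM, averaged, control-corrected, reported as log10(CPM+1).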

Row | Sequence | recombinant barcode read abundance (log10)
1 | TTATAAACTTGGGTTCTAACCTGTTGCCTTC [TTATAAACTAG_LTGcore_CT_RTGcore_GA] (site TTATAAACTAG) (LTG core: CT, RTG core: GA) | 0.0607
2 | TTATAAAGCTGGGTTCTAACCTGTTGCCTAG [TTATAAACTAG_LTGcore_GC_RTGcore_CT] (site TTATAAACTAG) (LTG core: GC, RTG core: CT) | 0.0375
3 | TTATAAAGGTGGGTTCTAACCTGTTGCCTAG [TTATAAACTAG_LTGcore_GG_RTGcore_CT] (site TTATAAACTAG) (LTG core: GG, RTG core: CT) | 0.0816
4 | TTATAAATATGGGTTCTAACCTGTTGCCTAG [TTATAAACTAG_LTGcore_TA_RTGcore_CT] (site TTATAAACTAG) (LTG core: TA, RTG core: CT) | 0.124
